# Entries after “also recorded” stand apart in the source; their conditions may differ.
# How the values were obtained:
# BCRP = target: T1, BCRP (Homo sapiens, UniProt Q9UNQ0); assay: Vesicular transport inhibition assay, BCRP (estrone-3-sulfate); conditions: for Maximum % inhibition: BCRP, inside-out membrane vesicles, E3S (1 μM), NIO: No inhibition observed
# T1 sequence (Q9UNQ0 1-655): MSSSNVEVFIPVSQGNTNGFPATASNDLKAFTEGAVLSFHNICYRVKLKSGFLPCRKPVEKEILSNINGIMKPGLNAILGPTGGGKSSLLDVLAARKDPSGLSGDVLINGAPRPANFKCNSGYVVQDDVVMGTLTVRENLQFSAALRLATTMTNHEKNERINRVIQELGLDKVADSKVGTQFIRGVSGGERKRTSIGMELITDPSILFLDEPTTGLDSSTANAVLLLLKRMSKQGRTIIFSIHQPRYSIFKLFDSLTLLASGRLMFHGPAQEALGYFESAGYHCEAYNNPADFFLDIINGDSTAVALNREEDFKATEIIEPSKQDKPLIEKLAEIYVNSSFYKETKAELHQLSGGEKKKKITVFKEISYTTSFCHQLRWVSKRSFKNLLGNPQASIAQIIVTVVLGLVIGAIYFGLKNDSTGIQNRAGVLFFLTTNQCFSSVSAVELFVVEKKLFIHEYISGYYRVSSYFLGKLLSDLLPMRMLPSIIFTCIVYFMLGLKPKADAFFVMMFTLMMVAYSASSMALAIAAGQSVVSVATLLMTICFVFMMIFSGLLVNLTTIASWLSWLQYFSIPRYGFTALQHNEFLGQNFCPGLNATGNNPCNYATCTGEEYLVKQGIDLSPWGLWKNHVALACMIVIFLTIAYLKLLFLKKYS
# Description: Vesicular transport assays were performed with inside-out membrane vesicles prepared from cells overexpressing human ABC (efflux) transporters. The transporters were expressed by SOLVO Biotechnology in mammalian (HEK293) cells. The mammalian cells were stably transfected with the ABC transporter of interest. The assays were conducted according to the actual SOLVO VT assay protocols (PR-ASY-VT-General Protocol for Vesicular Transport Inhibition Assays).
# The membrane vesicle suspension was mixed with the ice-cold transport buffer, then the probe substrate solution was added. […] (for BCRP and MDR1). […] Reactions were quenched by the addition of 200 μL of ice-cold washing buffer and immediate filtration via glass fiber filters mounted to a 96-well plate (filter plate). The filters were washed (5×200 μL of ice-cold washing buffer), dried and the amount of substrate inside the filtered vesicles was determined by liquid scintillation counting.
# Incubation with AMP provided background activity values for all data points.
# Wistar rats = assay: Five Choice Serial Reaction Time Task, variable intertrial interval (vITI), acute; format: in vivo, Wistar rat; conditions: for % hit rate: Compound I-4 0.1-1.0 mg/kg ip, Compound I-19 0.03-1.0 mg/kg ip; for % correct / Magazine Head Entries / Omissions / number of trials completed / perseverative responses / premature responses / response latencies (correct, incorrect) / reward latencies / timeout responses: same doses
# Description: Animals were trained in eight automated 5C-SRTT operant chambers (Med Associates, St. Albans, VT, USA), controlled by MedPC software (Med Associates). Briefly, each operant chamber was equipped with 5 apertures containing a photocell beam to detect nose pokes and a lamp (2.8 W) that could be illuminated randomly at varying durations. Food pellets (45 mg chow pellet, BioServ, Frenchtown, NJ, USA) were delivered automatically to a magazine, located on the opposite wall to the nose pokes, that was also equipped with a light that turned on to indicate that a pellet had been dispensed. The house-light remained on for the entire session unless an error or omission occurred. Training sessions began with the delivery of a food reward and retrieval triggered the first trial. […] Training began with the stimulus duration set at 10 sec, a limited hold period of 5 sec and an ITI of 5 sec. […] Sessions ended when 40 minutes had lapsed or 100 trials had been completed.
# Upon meeting the performance criteria, animals were assessed in the vSD version of the task where the following stimulus durations were presented in a pseudorandom manner: 0.3, 0.6 and 0.9 sec. Later, subjects were assessed in the vITI version where 2.5, 5.0 and 10.0 sec ITIs were employed in a pseudorandom manner. Performance parameters measured were: % hit ((# correct/(# correct+# incorrect including omissions))×100); % correct ((# correct/(# correct+# incorrect excluding omissions))×100); premature responses (# of nose-pokes into any aperture after trial initiation but before onset of the stimulus light); timeout responses (# of nose pokes into any aperture during a timeout period), perseverative responses (# of nose pokes occurring after the correct response had been made but before reward collection); # of food magazine head entries, omissions and total trials completed. The latency to correct response (time taken from the onset of the nose poke light stimulus to making the correct nose poke response), latency to incorrect response (time taken from onset of nose poke light stimulus to making the incorrect nose poke response), and latency to reward (i.e., the magazine latency, time taken from making a correct nose poke response to retrieving the reward from the magazine) was also recorded.
# Drug doses and vehicle were administered in a pseudorandom fashion. Drug or vehicle sessions were performed 1-2 times per week with maintenance training (behavioral testing without drug or vehicle injections) interspersed.
# All data were collated and entered into Microsoft Excel spreadsheets. The data were subsequently imported into StatView 5.0 for statistical analyses. One and two factor analysis of variance (ANOVA) tests were used with repeated measures when indicated, followed by Fisher LSD or Student Newman Keuls as post-hoc tests. All results were expressed as the mean (±S.E.M.). Differences between means from experimental groups were considered significant at the p<0.05 level. The statistical F values and degrees of freedom associated with the two factor ANOVA analyses are provided in the text of this report. Please refer to the statistical reports in the appendices for the values associated with one factor ANOVAs for the overall means and overall total values.
# [1] = 0.14 μM nominal, follow-up assay
# [2] = 1.24 μM nominal, follow-up assay
# [3] = 11.11 μM nominal, follow-up assay
# [4] = 33.33 μM nominal, follow-up assay
# [5] = 100.00 μM nominal, follow-up assay
structure (smiles),measurement,setting,value
"OC1(c2ccc(Cl)cc2)c2ccccc2C2=NCCN21 (stereo not shown) [Compound A, 5-(4-chlorophenyl)-2,3-dihydroimidazo[1,2-b]isoindol-5-ol, reference compound]",Relative ATP-dependent transport,BCRP; 5.00 μM nominal,100.28 ± 5.84 % of control
same,Relative ATP-dependent transport,BCRP; 50.00 μM nominal,97.83 ± 3.82 % of control
same,maximum inhibition of BCRP-mediated E3S accumulation,"BCRP; 2-concentration assay, up to 100 μM (Compound A up to 50 μM)",did not inhibit; also recorded: not an in vitro inhibitor
same,Maximum % inhibition,BCRP,NIO
same,inhibition at 5 μM,BCRP; human,0%
same,inhibition at 50 μM,BCRP; human,2%
COCCOC1(c2ccc(Cl)cc2)c2ccccc2C2=NCCN21 (stereo not shown) [Compound I-4],% hit rate,Wistar rats,modest decrease in the % hit rate
same,% correct,Wistar rats,no statistically significant dose-related effects
same,Magazine Head Entries,Wistar rats,"decreases in the number of premature responses, timeout responses, and magazine head entries"
same,Omissions,Wistar rats,increase in the number of omissions
same,number of trials completed,Wistar rats,the number of trials completed was not affected
same,perseverative responses,Wistar rats,no statistically significant effects on perseverative responses
same,premature responses,Wistar rats,decrease in the number of premature responses
same,"response latencies (correct, incorrect)",Wistar rats,increases in the response and reward latencies
same,reward latencies,Wistar rats,increases in the response and reward latencies
same,timeout responses,Wistar rats,"decreases in the number of premature responses, timeout responses, and magazine head entries"
Clc1ccc(C2(OCC3OCCO3)c3ccccc3C3=NCCN32)cc1 (stereo not shown) [Compound I-19],% hit rate,Wistar rats,modest decrease in the % hit rate
same,% correct,Wistar rats,no statistically significant dose-related effects
same,Magazine Head Entries,Wistar rats,"decrease in the number of premature responses, timeout responses, and magazine head entries"
same,Omissions,Wistar rats,increase in the number of omissions
same,number of trials completed,Wistar rats,not significantly affected
same,perseverative responses,Wistar rats,no statistically significant effects on perseverative responses
same,premature responses,Wistar rats,decreases in the number of premature responses
same,"response latencies (correct, incorrect)",Wistar rats,modest increases in the response latencies
same,reward latencies,Wistar rats,not significantly affected
same,timeout responses,Wistar rats,"decrease in the number of premature responses, timeout responses, and magazine head entries"
same,ATP-dependent transport,BCRP; [1],"13,445.33 ± 1,138.41 cpm"
same,Relative ATP-dependent transport,BCRP; [1],98.49 ± 11.79 % of control
same,Relative inhibition,BCRP; [1],2%
same,ATP-dependent transport,BCRP; [2],"12,617.00 ± 500.27 cpm"
same,Relative ATP-dependent transport,BCRP; [2],92.42 ± 8.64 % of control
same,Relative inhibition,BCRP; [2],8%
same,ATP-dependent transport,BCRP; 10.00 μM nominal,"15,363.00 ± 602.94^ cpm"
same,Relative ATP-dependent transport,BCRP; 10.00 μM nominal,94.72 ± 7.53 % of control
same,Relative inhibition,BCRP; 10.00 μM nominal,5%
same,ATP-dependent transport,BCRP; [3],"12,797.67 ± 194.88 cpm"
same,Relative ATP-dependent transport,BCRP; [3],93.75 ± 8.06 % of control
same,Relative inhibition,BCRP; [3],6%
same,ATP-dependent transport,BCRP; [4],"10,739.00 ± 289.94 cpm"
same,Relative ATP-dependent transport,BCRP; [4],78.67 ± 6.99 % of control
same,Relative inhibition,BCRP; [4],21%
same,ATP-dependent transport,BCRP; 100.00 μM nominal,"7,418.33 ± 222.69 cpm"
same,Relative ATP-dependent transport,BCRP; 100.00 μM nominal,45.74 ± 3.45 % of control
same,Relative inhibition,BCRP; 100.00 μM nominal,54%
same,ATP-dependent transport,BCRP; [5],"7,718.00 ± 183.19 cpm"
same,Relative ATP-dependent transport,BCRP; [5],56.54 ± 4.97 % of control
same,Relative inhibition,BCRP; [5],43%
same,Maximum % inhibition,BCRP,43%
same,maximum inhibition of BCRP-mediated E3S accumulation,"BCRP; follow-up assay, seven concentrations",43%
